Like-named read-outs stand apart in the source and are kept apart here.

Results on 4 compounds are retold here after patent publication US11007141B2, “Oral preparation and preparation method thereof” (GUANGZHOU XIANGXUE PHARMACEUTICAL CO., LTD., priority 2015, dated 2021).

Data set [1] is described as follows: Maximum solubility of cyclodextrins in hydrochloric acid solution pH 1.2. On the procedure:
(§1) Different kinds of cyclodextrins were dissolved with an aqueous hydrochloric acid solution (0.1N) having a pH value of 1.2 to determine the saturation concentration of each cyclodextrin.
(1) A certain amount of α-, β- and γ-cyclodextrin were weighed and added into a 10 mL volumetric flask, then an aqueous hydrochloric acid solution of pH 1.2 was gradually added until reaching the scale of the flask, and the flask was shocked and ultrasound was performed to dissolve the cyclodextrin. The maximum amount of cyclodextrin capable of being dissolved in a 10 mL solution was recorded.

For data set [2] the following is noted: for Water (water-addition-precipitating critical point of drug solution): 100 mg drug; for dissolution in aqueous solution containing surfactant: magnetic stirring 1 hour. As to the method: In this study, a dissolution test was performed using a single non-aqueous solvent ethanol.
In this study, a dissolution test was also performed using composite solvents composed of PEG400 or PEG200 and absolute ethanol, respectively.
In addition, in this study, dissolution tests were also performed using a single non-aqueous solvent propylene glycol, or a composite solvent composed of propylene glycol and other non-aqueous solvent.
Next, the dilution stability of these two solvent systems was tested.

For data set [3] the following is noted: API 0.5 mg/ml, 20% γ-CD, molar ratio 174:1. On the procedure: as §1
A certain amount of API was weighed and added into an appropriate volume of the cyclodextrin solution. […] The clear solution after the pH adjustment was left to stand to observe the state of the solution after standing for 2 hours, 4 hours, and 24 hours.

Data set [4] is described as follows: Tablet stability at high temperature (60° C.), high humidity (92.5% RH), −20° C. It is filed as physicochemical.
Data set [5] can be described thus: Concentration of drug-containing HP-β-CD preparation after filtration (HPLC). The note with it: 21 mg/ml drug-containing preparation in 30% HP-β-CD, pH 1.2; API not completely dissolved after 30 minutes ultrasound; 0.45 μm PES filter.

Consider `OC[C@H]1O[C@@H]2O[C@H]3[C@H](O)[C@@H](O)[C@@H](O[C@H]4[C@H](O)[C@@H](O)[C@@H](O[C@H]5[C@H](O)[C@@H](O)[C@@H](O[C@H]6[C@H](O)[C@@H](O)[C@@H](O[C@H]7[C@H](O)[C@@H](O)[C@@H](O[C@H]8[C@H](O)[C@@H](O)[C@@H](O[C@H]9[C@H](O)[C@@H](O)[C@@H](O[C@H]1[C@H](O)[C@H]2O)O[C@@H]9CO)O[C@@H]8CO)O[C@@H]7CO)O[C@@H]6CO)O[C@@H]5CO)O[C@@H]4CO)O[C@@H]3CO` [γ-cyclodextrin], for which, in data set [1], the maximum solubility entry is given as “about 20%”.
Consider `O=C(Cc1ccc(-c2ccc(N3CCOCC3)cc2)cn1)NCc1cccc(F)c1.O=S(=O)(O)c1ccccc1` [KX2-361.benzene sulfonate], for which the “Water (water-addition-precipitating critical point of drug solution)” value in data set [2] (Cremophor EL 17.1 g, 40° C.) amounted to 6.7 g; in data set [2] (Solutolo HS-15 10 g, 40° C.), 4.5 g; in data set [2] (Solutolo HS-15 15 g, 28° C.) it was 8.7 g; in data set [2] (Solutolo HS-15 20 g, 28° C.) it was 12.6 g. Also, the “dissolution in aqueous solution containing surfactant” value in data set [2] (drug containing 10 mg of KX2-361 in 0.6% Poloxamer 188 aqueous solution (50 ml)), in data set [2] (drug containing 10 mg of KX2-361 in 2% Tween80 aqueous solution (50 ml)), in data set [2] (drug containing 10 mg of KX2-361 in 8% Solutol HS15 aqueous solution (50 ml)) and in data set [2] (drug containing 10 mg of KX2-361 in 10% Cremophor EL aqueous solution (50 ml)) was “failed to completely dissolve” throughout. Also, the “dissolution in propylene glycol” value in data set [2] (drug containing 50 mg of KX2-361 in 20 ml of propylene glycol alone, a trace of small particles still present) is “could substantially be dissolved”. Further, in data set [2] (ethanol (95% v/v)), the solubility in ethanol was 1.12 to 2.38 mg/mL. Also, in data set [3], the “Solution phenomenon when the pH value was adjusted to 4” value is on record as “turbid”. The “Total impurity (%)” value in data set [4] (0 day) is 0.33%; in data set [4] (High humidity, 20 days), 0.31%; in data set [4] (High temperature, 10 days), 0.32%; in data set [4] (High temperature, 20 days), 0.32%; in data set [4] (−20° C., 20 days), 0.36%. Moreover, the “concentration after filtration, calibrated with HPLC” value in data set [5] came to 20660 µg/mL.
With `OC[C@H]1O[C@@H]2O[C@H]3[C@H](O)[C@@H](O)[C@@H](O[C@H]4[C@H](O)[C@@H](O)[C@@H](O[C@H]5[C@H](O)[C@@H](O)[C@@H](O[C@H]6[C@H](O)[C@@H](O)[C@@H](O[C@H]7[C@H](O)[C@@H](O)[C@@H](O[C@H]8[C@H](O)[C@@H](O)[C@@H](O[C@H]1[C@H](O)[C@H]2O)O[C@@H]8CO)O[C@@H]7CO)O[C@@H]6CO)O[C@@H]5CO)O[C@@H]4CO)O[C@@H]3CO` [β-cyclodextrin], the maximum solubility entry in data set [1] was “about 1%”.
Regarding `OC[C@H]1O[C@@H]2O[C@H]3[C@H](O)[C@@H](O)[C@@H](O[C@H]4[C@H](O)[C@@H](O)[C@@H](O[C@H]5[C@H](O)[C@@H](O)[C@@H](O[C@H]6[C@H](O)[C@@H](O)[C@@H](O[C@H]7[C@H](O)[C@@H](O)[C@@H](O[C@H]1[C@H](O)[C@H]2O)O[C@@H]7CO)O[C@@H]6CO)O[C@@H]5CO)O[C@@H]4CO)O[C@@H]3CO` [α-cyclodextrin], in data set [1] (aqueous hydrochloric acid solution of a pH value of 1.2), the maximum solubility entry is on record as “about 8%”.
